Measurements: US12565680B2, “Cancer neoantigens and their utilities in cancer vaccines and TCR-based cancer immunotherapy” (THE METHODIST HOSPITAL SYSTEM, priority 2018, dated 2026)

Legend:
Format in all cases: cell-based, human
[1] = test system: CD4^+ T cells isolated from 136TIL; assay: T-cell reactivity assay (IFN-γ ELISA): TMGs/minigenes in 293IMDR1/DP4 and 293IMDR11/DP4 cells; conditions: 293IMDR1/DP4 cells
From the text: Using several different approaches (293-engineered APCs and B cells, as well as different libraries) and tumor-reactive T cells (TIL lines and clones), 6 MHC-II antigens (4 mutation-derived neoantigens and 2 derived from alternative ORF and 3′ UTR region) were identified and 3 MHC-I neoantigens in 135 mel tumor cells. It appears that the number of neoantigens recognized by T cells is rather limited, even though there are 232 somatic mutations (Table 3). To extend the findings, exome sequencing of genomic DNAs isolated from the second patient tumor (136 mel) and 136TIL cells (as a control) was performed and identified 348 somatic mutations that were unique to 136 tumor cells (FIG. 8A) (Table 4). A library was designed and constructed containing 35 TMGs (10 mutations in each TMG) in pTSX targeting expression vector based on somatic mutations. […] By contrast, no appreciable T cell activity was observed against the corresponding WT counterparts (FIG. 8C). Because ANKIB1 can be presented by both 293IMDR1/DP4 and 293IMDR11/DP4 cells (FIG. 8B), it is likely that ANKIB1 is presented by HLA-DP4 molecules for T cell recognition.
(§1) 96-well tissue culture plates were coated with phosphate-buffered saline (PBS, GenDEPOT) containing 50 μg/ml poly-L-lysine (Millipore Sigma) at 37° C. 10 min later, the plates were rinsed twice with PBS. Tumor cells or 293-APCs were seeded at 5×10^4/well in the 96-well plate and cultured at 37° C., 5% CO2 for at least 4 h. For plasmid transfection, 250 ng of plasmid DNA were transfected into 293-APCs per well with 0.5 μl of Lipofectamine 2000 (Thermo Fisher Scientific) according to the manufacturer's instructions and incubated at 37° C., in 5% CO2 overnight. For peptide presentation, synthesized peptides (GeneScript) were added to each well at different final concentrations from 10^2 to 10^−4 μM and incubated at 37° C., 5% CO2. The cells transfected with plasmids or pulsed with peptides were washed with TCM twice, and then cocultured with T cells (1×10^5/well). After overnight culture, 50 μl of supernatant was collected for measuring cytokine release with an ELISA assay.
96-well microplate (Greiner Bio-one) was coated with 50 μl of PBS containing anti-human IFN-γ (Thermo Fisher Scientific, primary antibody, 1 μg/ml) per well and incubated at 4° C. overnight. […] The plate was read at OD450 nm. The concentration of IFN-γ was calculated by standard reading.
The screening of antigen-specific T cells against TMGs were performed as described in T-cell reactivity assay above. […] The transfected cells were cocultured with tumor-reactive T cells overnight and the IFN-γ release in the supernatant in each well was determined by ELISA on the second day.

[2] = test system: 136TIL; assay: Intracellular staining of IFN-γ after neoantigen peptide stimulation, 136TIL; conditions: for neoantigen-specific CD4^+ T cells in the total T cell population: fibroblasts loaded with peptide
From the text: Among them, MAPK9 and ANKIB1 neoantigen-specific CD4^+ T cells accounted for 14.3% and 5.2% in the total T cell population, which accounted for 58% and 21% in the total tumor-reactive CD4^+ T cell population, respectively (FIG. 11B). By contrast, other neoantigen-specific CD4^+ T cells accounted for only a small percentage of T cells in the total T cell population (FIG. 11A). Since HHAT is only one MHC-I neoantigen, it was shown that HHAT neoantigen-specific CD8^+ T cells accounted for 10.6% in the total T cell population when stimulation with HHAT peptide (FIG. 11A), which accounted for 73% in the total tumor-reactive CD8^+ T cell population (FIG. 11B).
(§2) T cells were stimulated by various in vitro methods, such as tumor cells, peptides or DNA encoding neoantigens, etc. and induced to release cytokines. Stimulated T cells were resuspended in 100 μl of Cytofix/Cytoperm solution (BD Biosciences) per well for microwell plates (or 250 μl for tubes) and incubated for 20 min at 4° C. for cell fixation. Fixed cells were permeabilized by washing twice in 1× Perm/Wash buffer (BD Biosciences). Then the fixed/permeabilized cells were thoroughly resuspended in 50 μl of 1× Perm/Wash buffer containing 1 μl of phycoerythrin (PE)-conjugated IFN-γ antibody (Thermo Fisher Scientific) and incubate at 4° C. for 30 min in the dark. After that the cells were washed twice with 1× Perm/Wash buffer and ready for flow cytometric analysis.

[3] = test system: CD4^+136-C13 and 136-C22 T cell clones; assay: TMG/minigene screening with T cell clones of 136TIL; conditions: 293IMDR1/DP4 cells
Description: As shown in 135 mel, ADIPOR2 and LAGE1b were identified as tumor antigens recognized by T cell clones that were in relatively low abundance in the bulk TIL population. Thus, T cell clones generated from 136TILs were tested for their ability to recognize the newly identified as well as unknown neoantigens. 293IMDR1/DP4 and 293IMDR11/DP4 cells were transfected with 35 TMGs, respectively, followed by co-culturing with T cells clones for overnight.

[4] = test system: T-cell clones of 135TIL; assay: IFN-γ ELISA with tumor-reactive T-cell clones of 135TIL; conditions: for percentage of CD8^+ tumor-reactive T-cell clones recognizing the neoantigen: 40 clones; for number of CD8^+ tumor-reactive T-cell clones recognizing the neoantigen: of 40 clones
From the text: Thus, immunogenic antigens can be generated from various sources or mechanisms [such as alternative ORFs, noncoding regions (3′ and 5′ UTRs, introns, noncoding RNA)]. […] All other tumor-reactive CD4^+ T-cell clones and CD8^+ T-cell clones recognized the mutation-derived neoantigens. […] To identify these two antigens recognized by these two CD4^+ T-cell clones, an Ii-fusion cDNA library derived from 135 mel tumor cells was constructed using experimental procedures. The Ii-fusion cDNA library pools (approximately 100 cDNA clones per pool) were transfected into 293IMDR3/DP4 or 293IMDR4/DP4 cells, followed by co-culturing with CD4^+ T-cell clones (135-1C1 or 135-1E1). After 2×10^5 cDNA clones, positive cDNA library pools that stimulate two T-cell clones, respectively, were identified based on IFN-γ release by ELISA (FIG. 6B). The positive pools were then transformed into Stbl3™ Escherichia coli, and single bacteria colonies were picked for plasmid DNA isolation. The screening assays were repeated in the same APCs transfected with the single cDNA-containing plasmids, and identified three clones that were able to stimulate 135-1C1 T cells, and two clones that reacted with 135-1E1 T cells (FIG. 6C). […] The 135-1E1 T cell-reactive cDNA clones encoded the product translated from an alternative reading frame of CTAG2 (LAGE1b) (FIG. 6C and FIG. 7A). […] LAGE1 is a cancer-testis antigen, with over 80% amino acid sequence identical to NY-ESO-1 protein, which is the most immunogenic tumor antigen identified to date. To define the T cell epitopes, wee generated a series of deletions and truncations of 3′ UTR region of ADIPOR2 gene, and narrowed down T cell epitope to a 26 aa peptide-coding sequence that stimulate 135-1C1 T cell response (FIG. 7D). Using similar approach, T cell epitopes were narrowed down to a 69 aa peptide-coding sequence of the LAGE1b alternative ORF2 for 135-1E1 T-cell recognition (FIG. 7E).
Using systemic and multiple approaches, 8 cancer neoantigens were identified in 135 mel and 7 neoantigens in 136 mel. To understand the potential mechanisms that restrain the number of neoantigens that could induce T cell response, it was asked whether these neoantigens were equally recognized by T cells.
T-cell cloning and expansion were performed. Briefly, T-cell clones from 135TILs were generated by a limited dilution (0.3 cell/well) in 96-well plates. Allogeneic PBMCs from normal donors were irradiated (60 Gy) and then seeded as feeder cells (7×10^4/well) in TCM containing 35 ng/ml OKT3 (anti-hCD3 antibody) (R&D Systems) and 35 ng/ml anti-hCD28 antibody (R&D Systems). On day 1, recombinant IL-2 was added to the final concentration of 300 IU/ml. On day 5, half of the culture medium was replaced with fresh TCM containing recombinant IL-2, and then the medium was changed every other day or when the medium color turned yellow. On day 14, T-cell clones were harvested, counted, tested for tumor reactivity. Tumor reactive T-cell clones were further expanded.
as §1, with “assay. […]” for “assay.”

[5] = test system: 135TIL; assay: Intracellular staining of IFN-γ after neoantigen peptide stimulation, 135TIL; conditions: intracellular cytokine staining
Description: as §2

Sequence: LLKTRRILKCSYLYGFFLEPKSTKK [ANKIB1, MHC-II neoantigen of patient #136]
- T cell recognition, IFN-γ release by CD4^+ 136TIL [1]: capable of stimulating CD4^+ T cells for IFN-γ release
- share in the total tumor-reactive CD4^+ T cell population [2]: 21%
- neoantigen-specific CD4^+ T cells in the total T cell population [2]: 5.2%

Sequence: KDAARPAYWVPDYEILHCHNCRKEF [ZFYVE1, MHC-II neoantigen of patient #136]
- T cell recognition, IFN-γ release by CD4^+ 136TIL [1]: capable of stimulating CD4^+ T cells for IFN-γ release

Sequence: PFYLGHTIKSGDFEYVGMEGGIVLS [C1GALT1C1, MHC-II neoantigen of patient #136 recognized by clone C13]
- recognition by T cell clones 136-C13 (TMG13) and 136-C22 (TMG8) [3]: MHC-II neoantigens

Sequence: GSGEKVAGRVIVKVCEVTRVKAVRI [TXNIP, MHC-I neoantigen of patient #135]
- percentage of CD8^+ tumor-reactive T-cell clones recognizing the neoantigen [4]: 20%
- number of CD8^+ tumor-reactive T-cell clones recognizing the neoantigen [4]: 8
- CD8^+ T cells recognizing the neoantigen in the total T cell population [5]: 2.95%

Sequence: RLKASLDRPFTNSESAFYSIVGLSS [RPN2, MHC-I neoantigen of patient #135]
- percentage of CD8^+ tumor-reactive T-cell clones recognizing the neoantigen [4]: 12.5%
- number of CD8^+ tumor-reactive T-cell clones recognizing the neoantigen [4]: 5
- CD8^+ T cells recognizing the neoantigen in the total T cell population [5]: 1.54%

Sequence: SMPLWDFQGSTMRTSQYVRLTPDER [LMAN2, MHC-II neoantigen of patient #136]
- T cell recognition, IFN-γ release by CD4^+ 136TIL [1]: capable of stimulating CD4^+ T cells for IFN-γ release

Sequence: LLLAGYLAQQYLLLPTPKVIGIDLG [HSPA13, MHC-II neoantigen of patient #136 recognized by clone C22]
- recognition by T cell clones 136-C13 (TMG13) and 136-C22 (TMG8) [3]: MHC-II neoantigens

Sequence: YPGIKFEELFPDCIFPSESERDKIK [MAPK9, MHC-II neoantigen of patient #136]
- T cell recognition, IFN-γ release by CD4^+ 136TIL [1]: capable of stimulating CD4^+ T cells for IFN-γ release
- share in the total tumor-reactive CD4^+ T cell population [2]: 58%
- neoantigen-specific CD4^+ T cells in the total T cell population [2]: 14.3%
